In publication PMC6467542 (Bioorganic & Medicinal Chemistry, 2019):
pIC50: −log10 of the molar value. Converted amounts (≈) assume the structure as drawn. Where two headings read alike, the source gives them in different places.

Experiments:
[1] = test system: M. tb (strain H37Rv); experiment: MIC90 against non-replicating M.tb (LORA); type: cell-based, Mycobacterium tuberculosis; details: Mycobacterium tuberculosis, H37RV, read-out: MIC90 LORA
Protocol: In these assays, 1 is a potent inhibitor, with MICs of 0.08 and 0.12 µg/mL, respectively. Replacement of the naphthalene C-unit of 1 with various pyridyls produced analogues of considerably lower lipophilicity, with clogP values ranging from 6.89 down to 2.98.

[2] = test system: M. tb (strain H37Rv); experiment: MIC90 against replicating M.tb (MABA); type: cell-based, Mycobacterium tuberculosis; details: Mycobacterium tuberculosis, aerobic (replicating) conditions, 90% inhibition of growth
[3] = Cytotoxicity in Vero cells; type: cell-based; details: green monkey, Vero green monkey-derived epithelial kidney cells
[4] = in vitro; details: mouse, microsomes
[5] = biological target: CYP3A4 (Homo sapiens, UniProt P08684); experiment: Inhibition of CYP 3A4; type: in vitro ADME
[6] = mouse, in vivo
[7] = in vitro; details: human, microsomes
[8] = biological target: hERG potassium channel (Homo sapiens, UniProt Q12809); experiment: Inhibition of hERG potassium current (patch clamp electrophysiology); details: for pIC50: read-out: hERG IC50, manual patch clamp, 5-concentration dose-response; for hERG % inhibition at 3 µM: manual or (less accurate) QPatch assay
[9] = test system: M.tb; experiment: Efficacy in a mouse model of TB (lung CFU reduction); type: in vivo
[10] = in vivo; details: mouse, iv
[11] = Mouse pharmacokinetics
[12] = Clearance by human liver microsomes
[13] = Clearance by mouse liver microsomes
[14] = Mycobacterium tuberculosis, inhaled or nasal, 288 h; read-out: Log reduction in colony-forming units (CFU), new compound

Sequence of hERG potassium channel (Q12809 whole entry): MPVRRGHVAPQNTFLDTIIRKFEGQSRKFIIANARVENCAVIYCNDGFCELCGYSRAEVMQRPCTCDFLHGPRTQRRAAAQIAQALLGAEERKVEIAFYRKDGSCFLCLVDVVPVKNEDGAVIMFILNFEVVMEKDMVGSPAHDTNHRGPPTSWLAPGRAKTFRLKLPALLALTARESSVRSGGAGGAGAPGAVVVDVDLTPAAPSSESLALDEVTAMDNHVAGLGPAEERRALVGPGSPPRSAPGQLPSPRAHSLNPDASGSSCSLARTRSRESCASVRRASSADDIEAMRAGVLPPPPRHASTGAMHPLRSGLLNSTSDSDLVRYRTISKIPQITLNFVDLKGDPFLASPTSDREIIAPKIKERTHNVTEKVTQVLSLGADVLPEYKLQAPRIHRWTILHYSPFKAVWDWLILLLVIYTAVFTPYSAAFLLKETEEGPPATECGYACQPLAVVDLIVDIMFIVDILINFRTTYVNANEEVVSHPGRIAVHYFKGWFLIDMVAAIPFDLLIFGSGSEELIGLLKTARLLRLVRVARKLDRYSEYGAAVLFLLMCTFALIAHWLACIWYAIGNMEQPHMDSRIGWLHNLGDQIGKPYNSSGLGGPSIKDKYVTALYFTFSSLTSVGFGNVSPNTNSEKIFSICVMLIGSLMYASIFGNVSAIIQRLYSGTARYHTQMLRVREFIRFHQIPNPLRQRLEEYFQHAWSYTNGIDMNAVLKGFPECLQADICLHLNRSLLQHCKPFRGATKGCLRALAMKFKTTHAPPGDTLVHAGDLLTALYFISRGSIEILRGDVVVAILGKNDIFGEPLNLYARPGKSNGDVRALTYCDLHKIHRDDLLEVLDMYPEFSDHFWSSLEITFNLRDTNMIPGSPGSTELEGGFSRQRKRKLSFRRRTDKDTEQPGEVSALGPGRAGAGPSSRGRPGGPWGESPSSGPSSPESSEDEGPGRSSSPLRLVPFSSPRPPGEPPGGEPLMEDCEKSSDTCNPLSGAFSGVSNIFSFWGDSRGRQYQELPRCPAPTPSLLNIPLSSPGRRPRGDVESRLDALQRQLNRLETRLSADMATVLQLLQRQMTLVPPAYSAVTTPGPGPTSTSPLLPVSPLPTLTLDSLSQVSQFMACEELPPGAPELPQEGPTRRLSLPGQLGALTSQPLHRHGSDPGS
Sequence of CYP3A4 (P08684 whole entry): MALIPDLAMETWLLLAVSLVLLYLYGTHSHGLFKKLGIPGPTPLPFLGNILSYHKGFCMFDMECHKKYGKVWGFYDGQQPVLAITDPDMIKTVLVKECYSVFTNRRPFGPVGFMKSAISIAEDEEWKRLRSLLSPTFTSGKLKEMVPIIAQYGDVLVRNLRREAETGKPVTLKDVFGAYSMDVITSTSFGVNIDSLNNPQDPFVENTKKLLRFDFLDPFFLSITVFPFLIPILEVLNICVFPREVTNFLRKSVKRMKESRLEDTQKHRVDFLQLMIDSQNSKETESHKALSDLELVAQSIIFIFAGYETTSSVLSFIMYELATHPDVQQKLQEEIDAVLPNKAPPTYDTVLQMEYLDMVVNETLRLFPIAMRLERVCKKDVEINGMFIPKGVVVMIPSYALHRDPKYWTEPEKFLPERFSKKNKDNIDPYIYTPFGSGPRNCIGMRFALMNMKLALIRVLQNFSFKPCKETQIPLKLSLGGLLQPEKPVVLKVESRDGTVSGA

| Structure (SMILES) | MIC90 [1] [µg/mL] | MIC90 [2] [µg/mL] | microsomal CLint [4] [µL/min/mg] | AUC: exposure, AUCinf [6] [ng·h/mL] | IV Cl: IV clearance [6] [mL/min/kg] | Vz: IV apparent volume of distribution during terminal phase [6] [L/kg] | F: oral bioavailability [6] [%] | microsomal CLint [7] [µL/min/mg] | pIC50 [8] | log reduction at 20 mg/kg [9, 14] | hERG % inhibition at 3 µM [8] [%/3] | also measured |
| --- | --- | --- | --- | --- | --- | --- | --- | --- | --- | --- | --- | --- |
| COc1nc2ccc(Br)cc2cc1[C@@H](c1ccccc1)[C@@](O)(CCN(C)C)c1cccc2ccccc12 [Compound 1, Bedaquiline, reference compound] | 0.12 (≈ 0.216 µM) | 0.08 (≈ 0.144 µM) |  |  |  |  |  |  |  |  |  | IC50 [3]: 4 to 16 µg/mL (≈ 7.2 to 28.8 µM) |
| COc1cccc(C(O)(CCN(C)C)C(c2cc3cc(Br)ccc3nc2OC)c2cccc3c2OCO3)n1 (centres unmarked) [Compound 15] | 0.58 (≈ 0.999 µM) | 0.54 (≈ 0.93 µM) | 25 | 5600 | 13 | 10 | 45 | 8 | 6.62 | 0.3 |  | pIC50 [5]: 5.12 |
| COc1nc2ccc(Br)cc2cc1C(c1cccc(C)c1)C(O)(CCN(C)C)c1cccnc1C (centres unmarked) [Compound 19] | 0.25 (≈ 0.468 µM) | 0.15 (≈ 0.281 µM) | 71 | 400 | 59 | 33 | 10 | 35 |  |  | 26 | clearance [10]: > 50 mL/min/kg |
| COc1nc2ccc(Br)cc2cc1C(c1cccc2c1OCO2)C(O)(CCN(C)C)c1cccnc1C (centres unmarked) [Compound 21] | 0.56 (≈ 0.992 µM) | 0.45 (≈ 0.797 µM) | 51 | 820 | 44 | 21 | 19 | 71 |  |  | 13 |  |
| COc1cccc(C(c2cc3cc(Br)ccc3nc2OC)C(O)(CCN(C)C)c2ccc(C)nc2)c1F (centres unmarked) [Compound 22] | 0.28 (≈ 0.493 µM) | 0.3 (≈ 0.528 µM) | 99 | 250 | 67 | 10 | 8 | 24 |  |  | 17 | clearance [10]: > 50 mL/min/kg |
| COc1cccc(C(c2cc3cc(Br)ccc3nc2OC)C(O)(CCN(C)C)c2cc(C)cnc2C)c1OC (centres unmarked) [Compound 33] | 0.11 (≈ 0.185 µM) | 0.07 (≈ 0.118 µM) | 17 | 1390 | 79 | 77 | 72 | 7 | 5.96 | 3.5 |  | clearance [10]: > 50 mL/min/kg |
| COc1cccc(C(c2cc3cc(Br)ccc3nc2OC)C(O)(CCN(C)C)c2cnc(C)cc2C)c1OC (centres unmarked) [Compound 38] | 0.24 (≈ 0.404 µM) | 0.02 (≈ 0.0336 µM) | 46 | 2080 | 28 | 23 | 34 | 13 | 5.41 | 0.7 |  |  |
| COc1nc2ccc(Br)cc2cc1C(c1cccc(C)c1)C(O)(CCN(C)C)c1cccnc1OC (centres unmarked) [Compound 39] | 0.14 (≈ 0.254 µM) | 0.13 (≈ 0.236 µM) | 20 | 2510 |  |  |  | 10 | 6.35 | 0.6 |  |  |
| COc1nc2ccc(C#N)cc2cc1C(c1cccc(C)c1)C(O)(CCN(C)C)c1cccnc1OC (centres unmarked) [Compound 40] | 0.76 (≈ 1.53 µM) | 0.52 (≈ 1.05 µM) | 53 | 1170 | 48 | 6.6 | 33 | 11 | 6.52 | 0.5 |  |  |
| COc1nc2ccc(Br)cc2cc1C(c1cccc2c1OCO2)C(O)(CCN(C)C)c1cccnc1OC (centres unmarked) [Compound 41] | 1.1 (≈ 1.89 µM) | 0.66 (≈ 1.14 µM) | 19 | 3780 | 27 | 20 | 46 | 36 |  | 0.3 | 26 |  |
| COc1cc(C(O)(CCN(C)C)C(c2cc3cc(Br)ccc3nc2OC)c2ccnc(OC)c2OC)cnc1OC (centres unmarked) [Compound 48] | 0.45 (≈ 0.717 µM) | 0.06 (≈ 0.0956 µM) | 59 | 4280 | 19 | 6.0 | 48 | 5 | 5.44 | 0.9 |  |  |
| COc1cc(C(O)(CCN(C)C)C(c2cc3cc(Br)ccc3nc2OC)c2ccnc(OC)c2OC)c(OC)nc1OC (centres unmarked) [Compound 49] | 1.4 (≈ 2.13 µM) | 0.57 (≈ 0.867 µM) | 7 | 9130 | 10 | 12 | 52 | 5 | 5.57 |  |  |  |
| COc1cccc(C(c2cc3cc(C#N)ccc3nc2OC)C(O)(CCN(C)C)c2cc(C)nc(C)c2)c1F (centres unmarked) [Compound 55] | 0.91 (≈ 1.72 µM) | 0.6 (≈ 1.14 µM) | 51 | 350 | 130 | 53 | 25 | 12 |  |  | 37 | clearance [10]: > 50 mL/min/kg |
| COc1cccc(C(c2cc3cc(C#N)ccc3nc2OC)C(O)(CCN(C)C)c2cc(C)nc(C)c2)c1OC (centres unmarked) [Compound 57] | 0.61 (≈ 1.13 µM) | 0.24 (≈ 0.444 µM) | 7 | 1480 | 71 | 82 | 54 | 7 | 5.28 | 1.9 |  | clearance [10]: > 50 mL/min/kg |
| CCc1cc(C(O)(CCN(C)C)C(c2cc3cc(Br)ccc3nc2OC)c2cccc(OC)c2F)cc(CC)n1 (centres unmarked) [Compound 58] | 0.21 (≈ 0.344 µM) | 0.03 (≈ 0.0491 µM) | 20 |  |  |  |  | 8 |  |  | 63 |  |
| CCc1cc(C(O)(CCN(C)C)C(c2cc3cc(C#N)ccc3nc2OC)c2cccc(OC)c2F)cc(CC)n1 (centres unmarked) [Compound 59] | 0.28 (≈ 0.503 µM) | 0.19 (≈ 0.341 µM) | 27 |  |  |  |  | 10 |  |  |  | hERG % inhibition at 1 µM ([8]; 1 µM, manual assay): 48%/1 |
| COc1cc(C(O)(CCN(C)C)C(c2cc3cc(Br)ccc3nc2OC)c2cccc(OC)c2F)c(OC)cn1 (centres unmarked) [Compound 60] | 0.12 (≈ 0.195 µM) | 0.11 (≈ 0.179 µM) | 25 |  |  |  |  | 7 | 5.77 |  |  |  |
| CCOc1cc(C(O)(CCN(C)C)C(c2cc3cc(Br)ccc3nc2OC)c2ccnc(OC)c2OC)cc(OC(C)C)n1 (centres unmarked) [Compound 61] | 0.06 (≈ 0.0896 µM) | 0.01 (≈ 0.0149 µM) |  |  |  |  |  |  |  |  |  | F: oral bioavailability ([11]; mice): 50%; AUC: exposure, AUCinf ([11]; mouse): 10900 ng·h/mL; IV Cl: IV clearance ([11]; mouse, IV): 7 mL/min/kg; Vz: IV apparent volume of distribution during terminal phase ([11]; mouse, IV): 44 L/kg; microsomal CLint [12]: 8 µL/min/mg; microsomal CLint [13]: 7 µL/min/mg; log reduction at 20 mg/kg ([9]; Mycobacterium tuberculosis, inhaled or nasal, 288 h, read-out: Log reduction in colony-forming units (CFU), new compound): 5 |
| CCOc1cc(C(O)(CCN(C)C)C(c2cc(OC)nc(OC)c2)c2cc3cc(Br)ccc3nc2OC)cc(OC(C)C)n1 (centres unmarked) [Compound 62] |  | < 0.02 | 2.3 | 33000 | 3 | 20 | 58 | 1 | < 5.00 | 4.5 |  |  |
